Laboratory results taken from patent publication US9006487B2, “Amine-containing lipids and uses thereof” (Massachusetts Institute of Technology, priority 2005, dated 2015).
Where “and” joins values, the source holds several entries; their conditions need not be identical. Identical values can stand only once.

Columns and labels:
Assay type in all cases: cell-based
cos-7 cells = assay: DNA transfection: luciferase expression relative to Lipofectamine 2000; details: for Luciferase expression as a percentage of that achieved using Lipofectamine 2000: 300 ng Luciferase DNA per well; for Luciferase expression as a percentage of that achieved using Lipofectamine 2000 / % of the luciferase activity obtained from the use of Lipofectamine 2000: luciferase assay after 48 hours; for luciferase expression (second part of table, values relative to LIPO2000): 300 ng of DNA per well; for % of the luciferase activity obtained from the use of Lipofectamine 2000: 300 ng DNA per well
Procedure, shortened: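 cos-7 cells were transfected with 300 ng/well luciferase DNA complexed with lipid at ratios from 2.5 to 25 w/w. Bright-Glo luminescence was read after 48 hours and converted to ng luciferase by standard curve. Data are percent of the Lipofectamine 2000 control (2.5 w/w).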

[1] = tested on: renilla and firefly luciferases; assay: siRNA delivery: reporter-protein (renilla luciferase) knockdown relative to Lipofectamine 2000, firefly luciferase as viability control; details: 50 ng of siRNA per well
Method: Reporter-protein knockdown achieved by the top transfecting lipids relative to Lipofectamine™ 2000 (where negative values indicate improved knockdown). The assay accounts for toxicity, monitoring expression of both renilla and firefly luciferases, where the latter serves as viability control. For each lipid, 50 ng of siRNA was added per well at specific lipid/RNA w/w ratios (from top to bottom: 2.5, 5, 10, 15).

[2] = DNA delivery: raw luciferase expression (relative light units) of best-transfecting lipids; details: 300 ng of DNA per well
Method: Raw values for luciferase expression (relative lights units) of best-transfecting lipids at lipid/DNA (w/w) ratios listed. 300 ng of DNA was added per well.

[3] = 1st column, no head printed (2.5 w/w by the raw values)
[4] = 2nd column, no head printed (5 w/w by the raw values)
[5] = 3rd column, no head printed (10 w/w by the raw values)
[6] = 4th column, no head printed (15 w/w by the raw values)

Raw values for luciferase expression ([2]; lipid/DNA 2.5 w/w)	Raw values for luciferase expression ([2]; lipid/DNA 5 w/w)	SMILES	Luciferase expression as a percentage of that achieved using Lipofectamine 2000 (cos-7 cells; lipid/DNA 2.5 w/w)	luciferase expression (second part of table, values relative to LIPO2000) (cos-7 cells; lipid/DNA 2.5 w/w)	Luciferase expression as a percentage of that achieved using Lipofectamine 2000 (cos-7 cells; lipid/DNA 5 w/w)	luciferase expression (second part of table, values relative to LIPO2000) (cos-7 cells; lipid/DNA 5 w/w)	Luciferase expression as a percentage of that achieved using Lipofectamine 2000 (cos-7 cells; lipid/DNA 10 w/w)	luciferase expression (second part of table, values relative to LIPO2000) (cos-7 cells; lipid/DNA 10 w/w)	Luciferase expression as a percentage of that achieved using Lipofectamine 2000 (cos-7 cells; lipid/DNA 15 w/w)	luciferase expression (second part of table, values relative to LIPO2000) (cos-7 cells; lipid/DNA 15 w/w)	Luciferase expression as a percentage of that achieved using Lipofectamine 2000 (cos-7 cells; lipid/DNA 20 w/w)	luciferase expression (second part of table, values relative to LIPO2000) (cos-7 cells; lipid/DNA 20 w/w)	Luciferase expression as a percentage of that achieved using Lipofectamine 2000 (cos-7 cells; lipid/DNA 25 w/w)	luciferase expression (second part of table, values relative to LIPO2000) (cos-7 cells; lipid/DNA 25 w/w)	Reporter-protein knockdown relative to Lipofectamine 2000 (negative values indicate improved knockdown) ([1]; lipid/RNA 2.5 w/w)	Reporter-protein knockdown relative to Lipofectamine 2000 (negative values indicate improved knockdown) ([1]; lipid/RNA 5 w/w)	Reporter-protein knockdown relative to Lipofectamine 2000 (negative values indicate improved knockdown) ([1]; lipid/RNA 10 w/w)	Reporter-protein knockdown relative to Lipofectamine 2000 (negative values indicate improved knockdown) ([1]; lipid/RNA 15 w/w)	further results
		CCCCCCCCCCCCCCCOC(=O)CCN(CCOCCO)CCC(=O)OCCCCCCCCCCCCCCC [LG31]	19.6%	19.6	27.6%	27.6	34.0%	34.0	8.5%	8.5	14.3%	14.3	94.0%	94.0	41	21.06	−2.714	−5.764	
		CCCCCCCCCCCCCOC(=O)CCN(CCCN(CCO)CCO)CCC(=O)OCCCCCCCCCCCCC [LE87]													5.504	−6.923	−8.533	−15.2929	% of the luciferase activity obtained from the use of Lipofectamine 2000 (cos-7 cells; 2.5 w/w lipid to DNA): 10.5%; % of the luciferase activity obtained from the use of Lipofectamine 2000 (cos-7 cells; 5 w/w lipid to DNA): 9.0%; % of the luciferase activity obtained from the use of Lipofectamine 2000 (cos-7 cells; 10 w/w lipid to DNA): 38.4%; % of the luciferase activity obtained from the use of Lipofectamine 2000 (cos-7 cells; 15 w/w lipid to DNA): 4.3%; % of the luciferase activity obtained from the use of Lipofectamine 2000 (cos-7 cells; 20 w/w lipid to DNA): 0.0%; % of the luciferase activity obtained from the use of Lipofectamine 2000 (cos-7 cells; 25 w/w lipid to DNA): 0.0%
		CCCCCCCCCCCCCCCOC(=O)CCN(CCCN(C)C)CCC(=O)OCCCCCCCCCCCCCCC [LG80]	2.2%		11.9%		19.8%		31.3%		21.9%		17.4%		2.007	−9.09	−15.9409	−21.0263	
		CCCCCCCCCCCCCCOC(=O)CCN(CCOCCO)CCC(=O)OCCCCCCCCCCCCCC [LF31]	64.1%	64.1	78.7%	78.7	13.4%	13.4	69.5%	69.5	97.3%	97.3	266.8%	266.8	50.09	11.94	−0.8252	−10.5366	
		CCCCCCCCCCCCCCCOC(=O)CCN(CCCCCO)CCC(=O)OCCCCCCCCCCCCCCC [LG32]	0.2%		10.2%		1.0%		0.7%		0.4%		0.7%		58.1	41.51	44.71	−13.6483	
1170534 relative lights units	1213862 relative lights units	CCCCCCCCCCCCNC(=O)CCN(CCC(=O)NCCCCCCCCCCCC)CC(C)O (stereo not shown) [ND21]		47.4		69.2		18.7		2.6		0.1		0.4					
384317 relative lights units	2283250 relative lights units	CCCCCCCCCCCCCCNC(=O)CCN(CC)CCCN(CC)CCC(=O)NCCCCCCCCCCCCCC [NF64]		5.7		41.9		0.3		0.1									
8798627 relative lights units	308844 relative lights units	CCCCCCCCCCCCCCCCNC(=O)CCN(CCO)CCN(CCO)CCC(=O)NCCCCCCCCCCCCCCCC [NP103]		83.0		2.8		0.0		1.5									luciferase expression, second set of columns (replicate set of data) (cos-7 cells; [3]): 2.1; luciferase expression, second set of columns (replicate set of data) (cos-7 cells; [4]): 2.3; luciferase expression, second set of columns (replicate set of data) (cos-7 cells; [5]): 3.8; luciferase expression, second set of columns (replicate set of data) (cos-7 cells; [6]): 1.4
1061441 relative lights units	8015 relative lights units	CCCCCCCCCCCCCCNC(=O)CCN(CCCN(CCC(=O)NCCCCCCCCCCCCCC)CCC(=O)NCCCCCCCCCCCCCC)CCC(=O)NCCCCCCCCCCCCCC [NF100]		75.9		0.5		0.0		0.0									

SMILES	Raw values for luciferase expression ([2]; lipid/DNA 2.5 w/w)	Raw values for luciferase expression ([2]; lipid/DNA 5 w/w)	Luciferase expression as a percentage of that achieved using Lipofectamine 2000 (cos-7 cells; lipid/DNA 2.5 w/w)	luciferase expression (second part of table, values relative to LIPO2000) (cos-7 cells; lipid/DNA 2.5 w/w)	Luciferase expression as a percentage of that achieved using Lipofectamine 2000 (cos-7 cells; lipid/DNA 5 w/w)	luciferase expression (second part of table, values relative to LIPO2000) (cos-7 cells; lipid/DNA 5 w/w)	Luciferase expression as a percentage of that achieved using Lipofectamine 2000 (cos-7 cells; lipid/DNA 10 w/w)	luciferase expression (second part of table, values relative to LIPO2000) (cos-7 cells; lipid/DNA 10 w/w)	Luciferase expression as a percentage of that achieved using Lipofectamine 2000 (cos-7 cells; lipid/DNA 15 w/w)	luciferase expression (second part of table, values relative to LIPO2000) (cos-7 cells; lipid/DNA 15 w/w)	Luciferase expression as a percentage of that achieved using Lipofectamine 2000 (cos-7 cells; lipid/DNA 20 w/w)	luciferase expression (second part of table, values relative to LIPO2000) (cos-7 cells; lipid/DNA 20 w/w)	Luciferase expression as a percentage of that achieved using Lipofectamine 2000 (cos-7 cells; lipid/DNA 25 w/w)	luciferase expression (second part of table, values relative to LIPO2000) (cos-7 cells; lipid/DNA 25 w/w)	Reporter-protein knockdown relative to Lipofectamine 2000 (negative values indicate improved knockdown) ([1]; lipid/RNA 2.5 w/w)	Reporter-protein knockdown relative to Lipofectamine 2000 (negative values indicate improved knockdown) ([1]; lipid/RNA 5 w/w)	Reporter-protein knockdown relative to Lipofectamine 2000 (negative values indicate improved knockdown) ([1]; lipid/RNA 10 w/w)	Reporter-protein knockdown relative to Lipofectamine 2000 (negative values indicate improved knockdown) ([1]; lipid/RNA 15 w/w)	further results
CCCCCCCCCCCCNC(=O)CCN(CCCO)CCC(=O)NCCCCCCCCCCCC [ND20]	6868960 relative lights units and 7521540 relative lights units			278.4		278.1		0.2		0.1		0.0		0.0					luciferase expression, second set of columns (replicate set of data) (cos-7 cells; [3]): 84.9; luciferase expression, second set of columns (replicate set of data) (cos-7 cells; [4]): 5.5; luciferase expression, second set of columns (replicate set of data) (cos-7 cells; [5]): 0.1; luciferase expression, second set of columns (replicate set of data) (cos-7 cells; [6]): 0.0
